The record followed here is US8829007B2 (priority 2009, dated 2014).

In the first assay the test system is influenza A virus (A/PR/8/34). Kind of assay: microbe, parasite or virus in culture. Conditions: Influenza A virus, PR/8, MDCK, mean all; A/PR/8/34 infected MDCK cells, CPE assay; read-out: IC50. The class given is cell-based.
On to `CCC(=O)N[C@@H]1CCCC[C@@H]1Nc1nc(-c2c[nH]c3ncc(Cl)cc23)ncc1F` (relative stereo) [Compound 333, N-[cis-2-[[2-(5-chloro-1H-pyrrolo[2,3-b]pyridin-3-yl)-5-fluoro-pyrimidin-4-yl]amino]cyclohexyl]propanamide], for which the IC50 lay within 5 to 20 µM.

For the molecule `CCCC(=O)N[C@@H]1CCCC[C@@H]1Nc1nc(-c2c[nH]c3ncc(Cl)cc23)ncc1F` (relative stereo) [Compound 334, N-[cis-2-[[2-(5-chloro-1H-pyrrolo[2,3-b]pyridin-3-yl)-5-fluoro-pyrimidin-4-yl]amino]cyclohexyl]butanamide], the IC50 was in the range of 5 to 20 µM.

Turning to `O=C(N[C@@H]1CCCC[C@@H]1Nc1nc(-c2c[nH]c3ncc(Cl)cc23)ncc1F)C1CCCC1` (relative stereo) [Compound 335, N-[cis-2-[[2-(5-chloro-1H-pyrrolo[2,3-b]pyridin-3-yl)-5-fluoro-pyrimidin-4-yl]amino]cyclohexyl]cyclopentanecarboxamide], the IC50 was greater than 20 µM.

With `O=C(N[C@@H]1CCCC[C@@H]1Nc1nc(-c2c[nH]c3ncc(Cl)cc23)ncc1F)c1ccccc1` (relative stereo) [Compound 336, N-[cis-2-[[2-(5-chloro-1H-pyrrolo[2,3-b]pyridin-3-yl)-5-fluoro-pyrimidin-4-yl]amino]cyclohexyl]benzamide], the IC50 was greater than 20 µM.

Regarding `CCCS(=O)(=O)N[C@@H]1CCCC[C@@H]1Nc1nc(-c2c[nH]c3ncc(Cl)cc23)ncc1F` (relative stereo) [Compound 338, N-[cis-2-[[2-(5-chloro-1H-pyrrolo[2,3-b]pyridin-3-yl)-5-fluoro-pyrimidin-4-yl]amino]cyclohexyl]propane-1-sulfonamide], the IC50 is greater than 20 µM.

Consider `CCCNC(=O)N[C@@H]1CCCC[C@@H]1Nc1nc(-c2c[nH]c3ncc(Cl)cc23)ncc1F` (relative stereo) [Compound 339, 1-[cis-2-[[2-(5-chloro-1H-pyrrolo[2,3-b]pyridin-3-yl)-5-fluoro-pyrimidin-4-yl]amino]cyclohexyl]-3-propyl-urea], for which the IC50 is 5 to 20 µM.

Regarding `CCC(=O)N[C@@H]1CCCC[C@@H]1Nc1nc(-c2c[nH]c3ncccc23)ncc1F` (relative stereo) [Compound 341, N-[cis-2-[[5-fluoro-2-(1H-pyrrolo[2,3-b]pyridin-3-yl)pyrimidin-4-yl]amino]-cyclohexyl]propanamide], the IC50 is greater than 20 µM.

In the case of `CCCC(=O)N[C@@H]1CCCC[C@@H]1Nc1nc(-c2c[nH]c3ncccc23)ncc1F` (relative stereo) [Compound 342, N-[cis-2-[[5-fluoro-2-(1H-pyrrolo[2,3-b]pyridin-3-yl)pyrimidin-4-yl]amino]cyclohexyl]butanamide], the IC50 is greater than 20 µM.

On to `O=C(N[C@@H]1CCCC[C@@H]1Nc1nc(-c2c[nH]c3ncccc23)ncc1F)C1CCCC1` (relative stereo) [Compound 343, N-[cis-2-[[5-fluoro-2-(1H-pyrrolo[2,3-b]pyridin-3-yl)pyrimidin-4-yl]amino]cyclohexyl]cyclopentanecarboxamide], for which the IC50 is greater than 20 µM.

Regarding `O=C(N[C@@H]1CCCC[C@@H]1Nc1nc(-c2c[nH]c3ncccc23)ncc1F)c1ccccc1` (relative stereo) [Compound 344, N-[cis-2-[[5-fluoro-2-(1H-pyrrolo[2,3-b]pyridin-3-yl)pyrimidin-4-yl]amino]cyclohexyl]benzamide], the IC50 is greater than 20 µM.

On to `CCCS(=O)(=O)N[C@@H]1CCCC[C@@H]1Nc1nc(-c2c[nH]c3ncccc23)ncc1F` (relative stereo) [Compound 346, N-[cis-2-[[5-fluoro-2-(1H-pyrrolo[2,3-b]pyridin-3-yl)pyrimidin-4-yl]amino]cyclohexyl]propane-1-sulfonamide], for which the IC50 was greater than 20 µM.

For the molecule `CCCNC(=O)N[C@@H]1CCCC[C@@H]1Nc1nc(-c2c[nH]c3ncccc23)ncc1F` (relative stereo) [Compound 347, 1-[cis-2-[[5-fluoro-2-(1H-pyrrolo[2,3-b]pyridin-3-yl)pyrimidin-4-yl]amino]cyclohexyl]-3-propyl-urea], the IC50 was greater than 20 µM.

With `CCC(=O)N[C@@H]1CCCC[C@H]1Nc1nc(-c2c[nH]c3ncc(Cl)cc23)ncc1F` (relative stereo) [Compound 349, N-[trans-2-[[2-(5-chloro-1H-pyrrolo[2,3-b]pyridin-3-yl)-5-fluoro-pyrimidin-4-yl]amino]cyclohexyl]propanamide], the IC50 is greater than 20 µM.

Regarding `CCCC(=O)N[C@@H]1CCCC[C@H]1Nc1nc(-c2c[nH]c3ncc(Cl)cc23)ncc1F` (relative stereo) [Compound 363, N-[trans-2-[[2-(5-chloro-1H-pyrrolo[2,3-b]pyridin-3-yl)-5-fluoro-pyrimidin-4-yl]amino]cyclohexyl]butanamide], the IC50 was greater than 20 µM.

As for `O=C(N[C@@H]1CCCC[C@H]1Nc1nc(-c2c[nH]c3ncc(Cl)cc23)ncc1F)c1ccccc1` (relative stereo) [Compound 365, N-[trans-2-[[2-(5-chloro-1H-pyrrolo[2,3-b]pyridin-3-yl)-5-fluoro-pyrimidin-4-yl]amino]cyclohexyl]benzamide], the concentration for half-maximal inhibition (IC50) is greater than 20 µM.

Consider `CCCS(=O)(=O)N[C@@H]1CCCC[C@H]1Nc1nc(-c2c[nH]c3ncc(Cl)cc23)ncc1F` (relative stereo) [Compound 367, N-[trans-2-[[2-(5-chloro-1H-pyrrolo[2,3-b]pyridin-3-yl)-5-fluoro-pyrimidin-4-yl]amino]cyclohexyl]propane-1-sulfonamide], for which the IC50 was in the range of 5 to 20 µM.

For the molecule `CCCNC(=O)N[C@@H]1CCCC[C@H]1Nc1nc(-c2c[nH]c3ncc(Cl)cc23)ncc1F` (relative stereo) [Compound 368, 1-[trans-2-[[2-(5-chloro-1H-pyrrolo[2,3-b]pyridin-3-yl)-5-fluoro-pyrimidin-4-yl]amino]cyclohexyl]-3-propyl-urea], the IC50 is greater than 20 µM.

With `CNC(=O)N[C@@H]1CCCC[C@@H]1Nc1nc(-c2c[nH]c3ncc(Cl)cc23)ncc1F` (relative stereo) [Compound 430, 1-[cis-2-[[2-(5-chloro-1H-pyrrolo[2,3-b]pyridin-3-yl)-5-fluoro-pyrimidin-4-yl]amino]cyclohexyl]-3-methyl-urea], the IC50 is less than 5 µM.

As for `CN(C)C(=O)N[C@@H]1CCCC[C@@H]1Nc1nc(-c2c[nH]c3ncc(Cl)cc23)ncc1F` (relative stereo) [Compound 431, 3-[cis-2-[[2-(5-chloro-1H-pyrrolo[2,3-b]pyridin-3-yl)-5-fluoro-pyrimidin-4-yl]amino]cyclohexyl]-1,1-dimethyl-urea], the concentration for half-maximal inhibition (IC50) is less than 5 µM.

Take `COC(=O)N[C@@H]1CCCC[C@@H]1Nc1nc(-c2c[nH]c3ncc(Cl)cc23)ncc1F` (relative stereo) [Compound 432, Methyl N-[cis-2-[[2-(5-chloro-1H-pyrrolo[2,3-b]pyridin-3-yl)-5-fluoro-pyrimidin-4-yl]amino]cyclohexyl]carbamate]: the IC50 was greater than 20 µM.

The same assay, now with this note: MDCK cells infected with A/PR/8/34, cell protection (CPE); read-out: IC50 (mean all).
With `NC1CCCCC1Nc1nc(-c2c[nH]c3ncccc23)ncc1F` (stereo not shown) [Compound 4, N1-(5-fluoro-2-(1H-pyrrolo[2,3-b]pyridin-3-yl)pyrimidin-4-yl)cyclohexane-1,2-diamine], the IC50 is greater than 20 µM.

The same assay, now with this note: read-out: IC50.
As for “1-[trans-2-[[2-(5-chloro-1H-pyrrolo[2,3-b]pyridin-3-yl)-5-fluoro-pyrimidin-4-yl]amino]cyclohexyl]-3-propyl-urea [Compound 350]”, the IC50 lay in the range of 5 to 20 µM.

What is called IC50 is the concentration that inhibits the measured activity by half.
